Experimental findings from US12544347B2, “Anti-cancer combination and a method of therapy using the combination” (NATIONAL CENTRE FOR CELL SCIENCE, priority 2018, dated 2026) are described below.

Holding throughout (type): cell-based
In one data set the test system is LN-229 cells. The data set can be described thus: MTT assay, cell viability in LN-229 cells (monolayer or multicellular spheroids). The settings on record: LN-229 MCS; TAM alone; 24 hr. On the procedure: (§1) FIG. 1 depicts cell viability assessed by MTT assay in GBM cell lines-LN-18 and LN-229 using tamoxifen (TAM) at concentration of 5 μg/ml, 10 μg/ml and 15 μg/ml; individually and in combination with Valproic Acid (VPA) (2 mM) wherein the cells were cultured as monolayer (ML) or Multicellular Spheroids (MCS). Unt-open bar-represents untreated cells and hatched bar—[…] (2 mM). Further, the open bars (in 5, 10 15) depict TAM alone and the hatched bars depict TAM in combination with VPA. FIG. 1 also depicts the P values (represented as *) significant for differences between TAM alone versus TAM+VPA. The images are LN-18 cells grown as 2D cultures—ML and 3D-MCS.
MTT assay was employed for assessing the combined action of tamoxifen (TAM) and VPA. LN-18 cells and LN-229 were seeded in 96 well plate (5000 cells/100 ul/well) in complete medium and cultured for 24 hr in two culture models-monolayer and 3D culture. Cells were treated with tamoxifen (TAM) at 3 concentrations-5 μg/ml, 10 μg/ml and 15 μg/ml either individually or in combination with Valproic Acid (VPA) (2 mM) for 24 hr. MTT was added and after 4 hr the crystals were solubilized using DMSO. Absorbance was recorded at 490 nm (test filter) and 570 nm (reference filter). The % cell viability in treated cells was calculated considering the readings in untreated cells as 100%. The results are presented at FIG. 1. […]
In general terms: Formazan colour is commonly taken as a measure of viable cells.

Data set [1] concerns prostate apoptosis response (Par)-4. The data set is described as follows: Western blotting of intracellular and secretory Par-4 in LN-18 cells. The settings on record: TAM 10 μg/ml, VPA 2 mM, alone or combined, 48 hr. On the procedure:
FIG. 4 depicts the effect of combination of tamoxifen (10 μg/ml) and valproic acid (2 mM) on the levels of secretory Par-4 and expression of GRP78 in […] cells wherein the control (C) represents untreated cells, V represents for valproic acid, T represents for tamoxifen and V+T represents combination of tamoxifen and valproic acid. The LN-18 cells were treated with tamoxifen or valproic acid alone or in combination for 48 hrs.
LN-18 cells were seeded in 6 well plate (0.3 million cells/well) and treated with TAM (10 μg/ml) and VPA (2 mM) either individually or in combination for 48 hr. Cell lysates were assessed for expression of intracellular prostate apoptosis response (Par)-4 and secretory Par-4 was measured in supernatants. Western blotting was done using 10% gels and the proteins were identified using specific antibodies followed by probing with luminol-based Enhanced Chemiluminescent (ECL) western blotting substrate. The results are presented at FIG. 4.
A general note: In western blotting, separated proteins are transferred to a membrane and probed.

In a further data set the test system is LN-18 cells. The data set is described as follows: MTT assay, cell viability in LN-18 cells (monolayer or multicellular spheroids). The note with it: 24 hr. On the procedure: as §1
FIG. 3 depicts the effect of Valpromide (VPM), an analogue of VPA causing sensitization of tamoxifen (TAM) which induced cell death in LN-18 cells cultured as monolayer (ML). […] The P values (represented as *) are significant for differences between TAM alone versus TAM+VPA/VPM.
MTT assay was employed for assessing the combined action of tamoxifen (TAM) and VPA. LN-18 cells and LN-229 were seeded in 96 well plate (5000 cells/100 ul/well) in complete medium and cultured for 24 hr in two culture models-monolayer and 3D culture. Cells were treated with tamoxifen (TAM) at 3 concentrations-5 μg/ml, 10 μg/ml and 15 μg/ml either individually or in combination with Valproic Acid (VPA) (2 mM) for 24 hr. MTT was added and after 4 hr the crystals were solubilized using DMSO. Absorbance was recorded at 490 nm (test filter) and 570 nm (reference filter). The % cell viability in treated cells was calculated considering the readings in untreated cells as 100%. The results are presented at FIG. 1. […] From FIG. 1, it is evident that the combination of the present invention is synergistic.
LN-18 cells (ML) were seeded in 96 well plate (5000 cells/100 ul/well) in complete medium and cultured for 24 hr. […] Absorbance was recorded at 490 nm (test filter) and 570 nm (reference filter). The % cell viability with treatment was calculated with readings in untreated cells considered as 100%. […]

In data set [2] the test system is prostate apoptosis response (Par)-4. The data set is described as follows: Western blotting of intracellular Par-4 in LN-229 cells. The settings on record: LN-229 cell lysates; TAM 12 μg/ml, VPA 2 mM, alone or combined; 24 hr.
Method: FIG. 5 depicts the effect of tamoxifen (12 μg/ml) or valproic acid (2 mM) alone or combination of tamoxifen and valproic acid on Par-4 expression in LN-229 cells for 24 hr. GAPDH was used as loading control and control group (C) represents untreated cells. LN-229 cells were seeded in 6 well plate (0.3 million cells/well) and treated with TAM (12 μg/ml) and VPA (2 mM) either individually or in combination for 24 hr. Cell lysates were assessed for expression of intracellular prostate apoptosis response (Par)-4. Western blotting was done using 10% gels and the proteins were identified using specific antibodies followed by probing with luminol-based Enhanced Chemiluminescent (ECL) western blotting substrate.

Structures can show the parent of a compound that is named as a salt.

As to `CC/C(=C(\c1ccccc1)c1ccc(OCCN(C)C)cc1)c1ccccc1` [TAM, (Z)-2[p[(1,2-diphenyl-1-butenyl)phenoxyl]-N,N-dimethylamine citrate], the “effect on % cell viability (MTT)” value with LN-229 cells was “resistant”; in the data set on LN-18 cells (LN-18 MCS, TAM alone) it was “resistant”; in the data set with LN-18 cells (LN-18 cells, TAM 15 ug/ml alone), “toxic”; with LN-18 cells (monolayer, TAM 5, 10 and 15 μg/ml alone), “dose dependent”. The “cellular Par-4 level (western blot)” value in data set [1] (LN-18 cell lysates) is listed as “enhanced”. Moreover, in data set [1] (LN-18 supernatants), the “secretory Par-4 level (western blot)” value is reported as “enhanced”.

For `CCCC(CCC)C(=O)O` [VPA, Valproic acid], in data set [2], the “cellular Par-4 expression (western blot)” value is “induced”.
